Measured values taken from US12357711B2, “PSMA binding dual mode radiotracer and therapeutic” (Technische Universität München, priority 2019, dated 2025).
“And” between values parts separate entries of the source, which are not always exact repeats. Equal entries are not always repeated.

How the values were obtained:
[1] = tested on: LNCaP tumor-bearing SCID mice; experiment: Biodistribution at 1 h p.i. with competition (co-injected PMPA); assay type: in vivo; settings: co-injected with PMPA (8 mg/kg)
Method: FIG. 11: Biodistribution [% ID/g] of ^18F-rhPSMAs co-injected with PMPA (8 mg/kg) at 1 h p.i in LNCaP tumor-bearing SCID mice. Data are expressed as mean±SD (n=3).

[2] = Octanol-water partition coefficient (n-octanol/PBS pH 7.4); assay type: physicochemical; settings: octanol/PBS7.4
Method: Approximately 1 MBq of the labeled tracer was dissolved in 1 mL of a 1:1 mixture (by volumes) of phosphate buffered saline (PBS, pH 7.4) and n-octanol in an Eppendorf tube. After vigorous mixing of the suspension for 3 minutes at room temperature, the vial was centrifuged at 15000 g for 3 minutes (Biofuge 15, Heraus Sepatech, Osterode, Germany) and 100 μL aliquots of both layers were measured in a gamma counter. The experiment was repeated at least six times.
Determianation of the IogP values was carried out in phosphate buffered saline (PBS, pH 7.4) and n-octanol (=logPoct/PBS).

[3] = tested on: PSMA-positive LNCaP cells; experiment: Internalization in LNCaP cells, normalized to ([125I]I-BA)KuE; assay type: cell-based; settings: LNCaP cells, 1 hour, 37° C.
Method: Data is corrected for non-specific binding ([…]) and expressed as mean±SD (n=3).
Subsequent to the removal of the culture medium, the cells were washed once with 500 μL DMEM-F12 (5% BSA) and left to equilibrate for at least 15 min at 37° C. in 200 μL DMEM-F12 (5% BSA). Each well was treated with either 25 μL of either DMEM-F12 (5% BSA) or a 100 μM PMPA solution for blockade. Next, 25 μL of the ^68Ga/^18F-labeled PSMA inhibitor (5.0 nM) was added and the cells incubated at 37° C. for 60 min. The experiment was terminated by placing the 24-well plate on ice for 3 min and consecutive removal of the medium. Each well was rinsed with 250 μL HBSS and the fractions from these first two steps combined, representing the amount of free radioligand. Removal of surface bound activity was accomplished by incubation of the cells with 250 μL of ice-cold PMPA (10 μM in PBS) solution for 5 min and rinsed again with another 250 μL of ice-cold PBS. The internalized activity was determined by incubation of the cells in 250 μL 1 M NaOH and the combination with the fraction of a subsequent wash step with 250 μL 1.0 M NaOH. Each experiment (control and blockade) was performed in triplicate. Free, surface bound and internalized activity was quantified in a γ-counter. […] Data were corrected for non-specific internalization and normalized to the specific-internalization observed for the radioiodinated reference compound.

Q: Which Biodistribution adrenals [1] does the source give for `CC(C)(C)[Si](F)(c1ccc(C(=O)NC[C@@H](NC(=O)CC[C@@H](C(=O)O)N2CCN(CC(=O)[O-])CCN(CC(=O)[O-])CCN(CC(=O)[O-])CC2)C(=O)N[C@H](CCCCNC(=O)CCC(=O)NCCC[C@@H](NC(=O)CC[C@H](NC(=O)N[C@@H](CCC(=O)O)C(=O)O)C(=O)O)C(=O)O)C(=O)O)cc1)C(C)(C)C.[Ga+3]` [rhPSMA7.3, [^19F][^natGa]D-Dap-S-DOTAGA-rhPSMA7] here?
A: 0.07 ± 0.09 % ID/g

Q: And the Biodistribution blood [1]?
A: 0.55 ± 0.14 % ID/g

Q: What about the Biodistribution bone [1] of the same compound?
A: 0.34 ± 0.22 % ID/g

Q: What about the Biodistribution heart [1] of the same compound?
A: 0.26 ± 0.04 % ID/g

Q: And the Biodistribution intestine [1]?
A: 0.94 ± 0.97 % ID/g

Q: What about the Biodistribution kidneys [1] of the same compound?
A: 15.5 ± 2.2 % ID/g

Q: What about the Biodistribution liver [1] of the same compound?
A: 0.46 ± 0.14 % ID/g

Q: What about the Biodistribution lung [1] of the same compound?
A: 0.69 ± 0.10 % ID/g

Q: And the Biodistribution muscle [1]?
A: 0.09 ± 0.02 % ID/g

Q: And the Biodistribution pancreas [1]?
A: 0.11 ± 0.02 % ID/g

Q: What about the Biodistribution spleen [1] of the same compound?
A: 0.35 ± 0.02 % ID/g

Q: And the Biodistribution stomach [1]?
A: 0.76 ± 0.74 % ID/g

Q: And the Biodistribution tumor ([1]; LNCaP tumor)?
A: 1.5 ± 0.4 % ID/g

Q: What about the “log P Mean” value ([2]; mean of individual measurements) of the same compound?
A: −3.26

Q: And the “individual log P measurements” value ([2]; single measurements)?
A: −3.06 and −3.07 and −2.86 and −3.39 and −3.33 and −3.34 and −3.20 and −3.40 and −3.41 and −3.48 and −3.49 and −3.32 and −3.45 and −3.53 and −3.43 and −3.56 and −3.03 and −3.08 and −3.02

Q: What about the individual internalization rates ([3]; c=0.5 nM, single measurements) of the same compound?
A: 156.6 % of [^125I]IB-KuE and 156.0 % of [^125I]IB-KuE and 171.7 % of [^125I]IB-KuE

Q: What about the “internalization rate Mean” value ([3]; mean) of the same compound?
A: 161.41 % of [^125I]IB-KuE
